Data: patent publication US4857516A, “Coumaran derivatives and their pharmaceutical use” (Takeda Chemical Industries, Ltd., priority 1986, dated 1989)

Experiments:
[1] = system: lipid peroxide production in rat brain homogenates; experiment: Inhibitory action on lipid peroxide production in rat brain homogenates; type: biochemical; settings: 5 v/v % rat brain homogenate, pH 7.4, 1 hour at 37° C.; read-out: Inhibition (IC50) of lipid peroxide production
Method: The male SD rat (12 weeks) brain tissue was extracted under anesthesia after depletion. The extracted brain tissue was used as 5 v/v % homogenate in phosphate buffer (pH 7.4). After incubation of the homogenate for 1 hour at 37° C., the peroxide produced was determined by the thiobarbituric acid method according to the method described in Analytical Biochemistry, 95, 551 (1979).
Before incubation, test compounds were added in 5 v/v % homogenate so that their final concentration becomes 10^-5 M. […]

5-lipoxygenase = target: T1, 5-lipoxygenase (Rattus norvegicus, UniProt P12527); experiment: Inhibition of 5-lipoxygenase (5-HETE production in RBL-1 cells); type: cell-based
T1 construct: endogenous in cells; host or cells: RBL-1 (rat basophilic leukemia cells)
T1 sequence (P12527 1-673): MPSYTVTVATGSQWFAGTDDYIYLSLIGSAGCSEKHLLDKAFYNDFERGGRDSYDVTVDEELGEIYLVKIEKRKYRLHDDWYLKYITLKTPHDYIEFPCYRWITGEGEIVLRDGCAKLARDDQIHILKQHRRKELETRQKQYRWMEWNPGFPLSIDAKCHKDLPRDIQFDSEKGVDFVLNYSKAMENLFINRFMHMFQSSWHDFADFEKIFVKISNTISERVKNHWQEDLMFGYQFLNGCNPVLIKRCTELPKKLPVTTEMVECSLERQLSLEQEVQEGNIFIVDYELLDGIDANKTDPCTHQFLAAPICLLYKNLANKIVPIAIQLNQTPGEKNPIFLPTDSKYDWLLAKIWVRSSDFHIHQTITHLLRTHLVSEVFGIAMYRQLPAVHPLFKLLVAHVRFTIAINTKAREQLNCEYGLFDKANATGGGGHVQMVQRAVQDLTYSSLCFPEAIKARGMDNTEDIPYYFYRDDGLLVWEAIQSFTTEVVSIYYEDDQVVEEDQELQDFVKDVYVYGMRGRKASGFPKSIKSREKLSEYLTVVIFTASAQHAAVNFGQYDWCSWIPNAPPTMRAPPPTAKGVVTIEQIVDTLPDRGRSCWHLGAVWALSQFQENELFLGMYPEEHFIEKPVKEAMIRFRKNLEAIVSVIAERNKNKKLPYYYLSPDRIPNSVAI
Method: 10^7 RBL-1 cells (rat basophilic leukemia cells) were suspended in 0.5 ml of MCM (mast cell medium). […] Then 4 ml of ethanol was added, and the mixture was well shaken and kept at room temperature for 10 min.
The mixture was centrifuged for 10 min. (2000 rpm), and the supernatant was separated. The supernatant obtained was concentrated to dryness under reduced pressure. To the residue 0.5 ml of 60 v/v % aqueous methanol was added. One hundred μl of this solution was subjected to high performance liquid chromatography for quantitative analysis of 5-HETE (5-hydroxyeicosatetraenoic acid). The amount of 5-HETE was determined by measurement of the absorbance at 237 nm with a UV absorption monitor.
The inhibitory effect (IE) of production of 5-HETE is expressed by (1-b/a)×100, wherein a is the peak height or the area corrected with the peak due to the internal standard in the absence of the compound (I) or a pharmaceutically acceptable salt thereof, and b is the peak height or peak area corrected with the peak due to the internal standard in the presence of the compound (I) or a pharmaceutically acceptable salt thereof.

[2] = system: excitatory behavior induced by FeCl2 in mice; experiment: Excitatory behavior induced by spinal intrathecal injection of FeCl2 in mice; type: in vivo, mouse; settings: 100 mg/kg p.o.
Method: Male Slc:ICP mice (5 weeks) were used. Each group consisted of 10 mice. 5 μl of 50 mM FeCl2 in saline was injected into spinal subarchnoid space betwen the 1st sacral and the 6th lumbar segment, the behavioral responses were observed from 15 min. to 1 hr. after the intrathecal injection of FeCl2 and scored as follows.
Score Behavioral responses
0: normal (no abnormal behavior)
1: vigorously biting lower abdomen or lower extremities
(a) extremely biting lower body with rolling
(b) hyperreactivity and agressive to external stmuli
at least one of above three behavioral changes were observed
4: tonic convulsion or paralysis of lower extremities.
The test compounds (100 mg/kg) were orally administered 30 min. prior to FeCl2 injection.

[3] = system: generation of HHT in rat platelets; experiment: Inhibitory effect on the generation of 12-hydroxyheptadeca-5,8,10-trienoic acid (HHT) in rat platelets; type: cell-based; settings: rat platelet rich plasma
Method: Blood was collected in 3.2 v/v % sodium citrate (0.8 ml for 7.2 ml of blood) from the abdominal aorta of male Wister rats (Jcl, 12 to 15 weeks) anesthesized with pentobarbital. Platelet rich plasma (PRP) was obtained by centrifuging the blood at 800 rpm for 10 min at room temperature. Platelet poor plasma (PPP) was prepared by centrifuging the remaining blood at 3,000 rpm for 10 min. The platelet concentration of PRP was adjusted to 1,000,000/μl with PPP. […]
The reaction was stopped by adding 100 ml of ethanol and the mixture was allowed to stand for 10 min. at room temperature. The reaction mixture was centrifuged at 2,000 rpm for 10 min. and the supernatant obtained was evaporated. To the concentrate, 0.2 ml of 60 v/v % aqueous ethanol was added.
100 μl of this solution was subjected to high performance liquid chromatography for quantitative analysis of HHT. The amount of HHT was determined by measurement of absorbance at 237 nm with a UV absorption monitor.
The inhibitory effect (IE) on the generation of HHT is expressed by (1-b/a)×100, wherein a is the peak height or the peak area corrected with the peak due to the internal standard in the absence of the compound (I) or a pharmaceutically acceptable salt thereof, and b is the peak height or the peak area corrected with the peak due to the internal standard in the compound (I) or a pharmaceutically acceptable salt thereof.

[4] = system: neurological deficits caused by spinal cord compression in rats; experiment: Functional neurologic impairment induced by spinal cord compression in rats; type: in vivo, rat; settings: 40 mg/kg, p.o.
Excerpt: (§1) Male Jcl:Wistar rats, weighing about 350 g at the time of spinal cord compression were used. A spinal cord injury was produced in rats by compressing the spinal cord with a stainless screw of 2.8 mm length and 2 mm diameter at thoracic 11 (T11) level under pentobarbital anesthesia. On the day of the operation, the screw was placed so that the end was just above the subarachnoid membrane of the spinal cord.
(§2) On the following day, the screw was completely tightened to compress the spinal cord without penetrating the subarachnoid membrane. After compression of the spinal cord for 60 min., the screw was removed. Test compounds were given orally 5 min. after the removal of screw.
0; flaccid paralysis, no movement of hind limbs, no response to pinching of tail with foreceps (i.e. movement of fore limbs, biting foreceps, vocalization)
1; no movement of hind limbs, but responds to pinching of tail with foreceps
2; uncoordinated movement (loss of coordination between limbs), but can not support own weight
3; movement with an impairment (general coordination between limbs), but can not support own weight
4; walking with a slight ataxia of the hind limbs, but can support own weight
(§3) The median neurological score of the drug-treated groups were compared with that saline-teated control group. Statistical analysis was done using the Mann-Whitney U-test. The incidence of rats showing urinary incontinence was also compared by the .chi.^2 -test.

[5] = system: urinary incontinence in rats with spinal cord compression; experiment: Incidence of rats showing urinary incontinence (spinal cord compression); type: in vivo, rat; design: Incidence of rats showing urinary incontinence: unit not given here; settings: 40 mg/kg, p.o.
Excerpt: as §1, §2, §3

[6] = day 3, Ex. 7 *p < 0.05, Ex. 20 **p < 0.01

IC50 [1]: 230 nM
inhibition at 1 µM (5-lipoxygenase; 10^-6 M): 99%
inhibition at 0.1 µM (5-lipoxygenase; 10^-7 M): 43%
inhibition at 0.01 µM (5-lipoxygenase; 10^-8 M): 13%
Structure (SMILES): Cc1c(C)c2c(c(C)c1O)C(c1ccc(F)cc1)C(C)(C)O2 (stereo not drawn) [Example 7, 3-(4-fluorophenyl)-5-hydroxy-2,2,4,6,7-pentamethyl-2,3-dihydrobenzofuran]
Score (mean behavioral score) ([2]; 30 min. prior to FeCl2, 0 normal to 5 death): 0.3
Percent inhibition (of mean score) ([2]; vs vehicle p.o.): 93%
inhibition at 100 µM ([3]; 10^-4 M): 49%
inhibition at 10 µM ([3]; 10^-5 M): 35%
neurological score (median value) ([4]; day 1, 0 flaccid paralysis to 5 normal gait, Ex. 20 **p < 0.01): 2
neurological score (median value) [4, 6]: 2
neurological score (median value) ([4]; day 7, Ex. 20 **p < 0.01): 3
neurological score (median value) ([4]; day 14, Ex. 20 *p < 0.05): 4
neurological impairment caused by spinal cord compression (in words) ([4]; Table 4(III)): ameliorated the neurological impairment
Incidence of rats showing urinary incontinence ([5]; day 1, Ex. 20 **p < 0.01): 42.9
Incidence of rats showing urinary incontinence ([5]; day 2, Ex. 20 **p < 0.01): 14.3
Incidence of rats showing urinary incontinence [5, 6]: 7.1
Incidence of rats showing urinary incontinence ([5]; day 5, Ex. 20 **p < 0.01): 7.1
Incidence of rats showing urinary incontinence ([5]; day 7, Ex. 7 *p < 0.05): 0
Incidence of rats showing urinary incontinence ([5]; day 10): 0
Incidence of rats showing urinary incontinence ([5]; day 14): 0
incidence of urinary incontinence (in words) ([5]; Table 4(IV)): reduced the incidence of urinary incontinence
